Test results: patent publication US8420144B2, “Kokumi-imparting agent, method of using, and compositions containing same” (Ajinomoto Co., Inc., priority 2005, dated 2013)

Molecular target: T1, human CaSR (Homo sapiens, UniProt P41180)
T1 construct: expressed in transfected cells; host or cells: HEK 293 cells, transient transfection of a CMV-promoter expression vector
T1 sequence (P41180 20-1078): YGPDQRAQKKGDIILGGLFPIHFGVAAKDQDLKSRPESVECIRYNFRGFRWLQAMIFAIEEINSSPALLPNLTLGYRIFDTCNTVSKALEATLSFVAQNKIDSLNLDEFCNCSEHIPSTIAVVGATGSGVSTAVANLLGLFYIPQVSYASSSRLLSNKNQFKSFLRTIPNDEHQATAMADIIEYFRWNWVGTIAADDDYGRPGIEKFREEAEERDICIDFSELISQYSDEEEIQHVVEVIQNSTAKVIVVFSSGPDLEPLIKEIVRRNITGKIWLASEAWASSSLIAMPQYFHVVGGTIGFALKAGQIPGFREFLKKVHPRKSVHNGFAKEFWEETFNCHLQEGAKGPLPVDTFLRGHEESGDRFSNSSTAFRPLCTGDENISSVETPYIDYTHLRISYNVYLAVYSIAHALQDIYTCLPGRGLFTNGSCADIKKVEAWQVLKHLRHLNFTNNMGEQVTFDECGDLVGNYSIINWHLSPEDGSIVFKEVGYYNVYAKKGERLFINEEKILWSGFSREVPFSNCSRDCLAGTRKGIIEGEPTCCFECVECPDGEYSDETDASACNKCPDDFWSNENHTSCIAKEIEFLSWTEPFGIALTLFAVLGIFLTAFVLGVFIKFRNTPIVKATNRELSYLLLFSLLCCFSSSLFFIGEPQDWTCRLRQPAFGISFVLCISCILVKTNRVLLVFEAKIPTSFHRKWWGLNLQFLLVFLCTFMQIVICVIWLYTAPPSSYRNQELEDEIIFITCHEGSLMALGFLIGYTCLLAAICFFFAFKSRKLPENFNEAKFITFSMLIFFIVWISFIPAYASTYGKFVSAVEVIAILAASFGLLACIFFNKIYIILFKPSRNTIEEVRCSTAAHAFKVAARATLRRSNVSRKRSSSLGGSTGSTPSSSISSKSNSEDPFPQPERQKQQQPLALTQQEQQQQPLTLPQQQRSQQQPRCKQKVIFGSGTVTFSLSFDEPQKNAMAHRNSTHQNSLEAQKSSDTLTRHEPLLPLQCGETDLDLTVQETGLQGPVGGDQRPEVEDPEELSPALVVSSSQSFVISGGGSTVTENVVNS
Experiment: Calcium receptor (CaSR) activation activity: calcium imaging in HEK 293 cells expressing human CaSR
Type: cell-based
Conditions: concentration giving 50% of the maximal activity; single values n = 1, others n = 2 or 3
Procedure: Calcium receptor (CaSR) activation activity of peptides obtained in Examples 2, 3, and 5-12 were measured as follows. A cDNA of human CaSR obtained in Example 1 of WO2007/055393A1 was inserted into an expression vector for an animal cell having a CMV promoter, and the cDNA in the vector was introduced into HEK 293 cells, which had multiplied to 70% of the maximal cell density, using FuGINE6 (Roche Ltd.). After culturing the cells for 4 to 48 hours, 0.6-1.0×10^5 of cells/well were disseminated into a 96-well plate, subsequently, the cells were cultured for one day, and then stained using Calcium 3 Assay Kit. The presence or absence of a calcium receptor activation activity of each peptide was confirmed by a calcium imaging method using FLEXSTATION (Molecular Devices Inc., instruction manual). Furthermore, the concentration of each peptide giving 50% of the maximal activity (EC50) was calculated using a dose characteristic curve.

`CC(C)[C@H](NC(=O)CC[C@H](N)C(=O)O)C(=O)NCC(=O)O` [γ-Glu-Val-Gly] showed an EC50 of 23 to 55 nM.
